Source: article PMC9763021, “Comprehensive Assessment of Biomolecular Interactions of Morpholine-Based Mixed Ligand Cu(II) and Zn(II) Complexes of 2,2′-Bipyridine as Potential Anticancer and SARS-CoV-2 Agents: A Synergistic Experimental and Structure-Based Virtual Screening” (Bioinorganic Chemistry and Applications, 2022)

What was measured:
[1] = test system: A549 human lung cancer cell line; assay: MTT cell viability assay, A549; format: cell-based
Method: (§1) All substances towards the A549, HepG2, MCF-7, and NHDF cell lines were evaluated by using the MTT approach. The collected data were utilized to compute the IC50 value and contrast it with the gold standard cisplatin anticancer medication.
(§2) Cellular viability or metabolic properties can be measured using the MTT assay, which is a powerful and credible method for anticancer properties. The anticancer efficacy of all test compounds was investigated by the MTT assay against A549, HepG2, MCF-7, and NHDF cell lines. As per the colorimetric approach, the IC50 findings of all test substances were evaluated as the % of cell viability/growth inhibition. […] Nevertheless, complex (1a) has the highest cytotoxic potential among others. The acquired findings were in the subsequent sequence as follows: (cisplatin) > (1a) > (2a) > (HL) (Figure 16 and Table 10). The cytotoxic effectiveness is dependent upon the DNA-binding modalities, the structure-activity relationship, as well as drug concentrations and incubation period exposure. […] As per Tweedy's chelation theory, charge equilibration happens as a result of coordination between the ligands and metal ions, which minimises the polarity of the metal ions and causes the capability of the test complexes to pass via the cell membrane lipid layer. Thus, it put off the synthesis of cell wall/protein/nucleic acids. Additionally, the results of DNA-binding tests using these complexes, including gel electrophoresis, UV-visible spectral titration, hydrodynamic, emission, and CV findings, were in good agreement with the findings of cytotoxicity. The expressions (46) and (47) were supported to measure the % of growth inhibition and cell viability. […]
(§3) A549, HepG2 MCF-7, and NHDF are represented as human lung cancer cell line, liver cancer cell line, breast cancer cell line, and normal human dermal fibroblasts cell line.(45) % Cytotoxiciy=1− Mean absorbance of Sample at 595 nm/Mean absorbance of Controlat 595 nm ×100, (46) Cellviability%=100−Cytotoxiciy%.

[2] = test system: NHDF normal human dermal fibroblasts cell line; assay: MTT cell viability assay, NHDF; format: cell-based; details: 72 hours exposure, normal cells
Method: as §1, §2, §3

[3] = test system: HepG2 liver cancer cell line; assay: MTT cell viability assay, HepG2; format: cell-based, human
Method: as §1, §2, §3

[4] = test system: MCF-7 breast cancer cell line; assay: MTT cell viability assay, MCF-7; format: cell-based, human
Method: as §1, §2, §3

Oc1ccccc1N=Cc1ccc(N2CCOCC2)cc1 [(HL), 2-(4-morpholinobenzylideneamino)phenol]
IC50 ([1]; Homo sapiens, A549, 72 hours exposure): 126 ± 6.3 µM
IC50 ([2]; Homo sapiens, NHDF): 209 ± 10.4 µM
IC50 ([3]; Homo sapiens, HepG2, 72 hours exposure): 108 ± 5.4 µM
IC50 ([4]; Homo sapiens, MCF7, 72 hours exposure): 105 ± 5.3 µM

[Cu+2].[O-]c1ccccc1N=Cc1ccc(N2CCOCC2)cc1.[O-]c1ccccc1N=Cc1ccc(N2CCOCC2)cc1.c1ccc(-c2ccccn2)nc1 [(1a), [Cu(L)2(bpy)]]
IC50 ([1]; 72 hours exposure): 30.8 ± 1.5 µM
IC50 [2]: 73.6 ± 3.7 µM
IC50 ([3]; 72 hours exposure): 33.1 ± 1.7 µM
IC50 ([4]; 72 hours exposure): 32.1 ± 1.6 µM
